Test results as given in publication PMC6727405, “Variation in the metabolites and α-glucosidase inhibitory activity of Cosmos caudatus at different growth stages” (BMC Complementary and Alternative Medicine, 2019).

Biological target: T1, α-glucosidase type 1 from S. cerevisiae (Sigma G5003)
T1 construct: gene MAL12; commercial enzyme preparation from yeast (Sigma-Aldrich)
Test: 4-nitrophenyl alpha-D-glucopyranoside hydrolysis, absorbance […] nm
Type: biochemical, Saccharomyces cerevisiae
Conditions: PNPG substrate; phosphate buffer pH 6.5; room temperature; 5 min preincubation; positive control

α-glucosidase inhibitory activity, IC50 (μg mL^- 1): 110.50 ± 4.30 µg/mL
SMILES: O=c1c(O)c(-c2ccc(O)c(O)c2)oc2cc(O)cc(O)c12 [Quercetin]
